Experimental data reported in patent US20070005124A1, “Endoluminal prosthesis comprising a therapeutic agent” (Blue Medical Devices B.V., priority 2003, published 2007).
“Also recorded” adds a separate entry of the source.

What was measured:
[1] = tested on: coronary arteries of pigs; test: Probucol and Melatonin biological-oil coated stents implanted in porcine coronary arteries, histopathology and morphometry at 4 weeks; assay type: in vivo, Domestic crossbred pigs; conditions: oil-coated loaded stents; for AS: Area stenosis (= 100 * (1 − LA/IEL)) / Inflammation (peri-strut inflammation score 1-3, mean) / Injury (arterial injury score, Schwartz grade 0-3, mean) / NIH: Neointimal hyperplasia (= IEL − LA) / LA: Lumen area: 4 weeks follow-up; for LA: Lumen area: Probucol 447+/−56 μg, Melatonin 367+/−47 μg per stent; for effect on arterial injury and inflammatory response (in words): compared to bare and/or oil-only stents
Description: Domestic crossbred pigs of both sexes weighing 20-25 kg were used. They were fed with a standard natural grain diet without lipid or cholesterol supplementation throughout the study. All animals were treated and cared for in accordance with the Belgium National Institute of Health Guidelines for care and use of laboratory animals.
In this study, bare Jostent Flexmaster stents (n=8), Bare stents dipped in a Biological oil coating (Oil Only; n=7), Bare stents dipped in a Probucol/Biological oil coating solution resulting in a total Probucol load of 447+/−56 μg/per stent (Pro, n=7) and Bare stents dipped in a Melatinin/Biological oil coating solution resulting in a total Melatonin load of 367+/−47 μg/stent (Mela, n=8). Stents were implanted in the coronary arteries of 15 pigs. All pigs were followed for 4 weeks to evaluate the peri-strut inflammatory response and neointimal formation.
Surgical procedure and stent implantation in the coronary arteries were performed according to the method described by De Scheerder et al. in “Local angiopeptin delivery using coated stents reduces neointimal proliferation in overstretched porcine coronary arteries.” J. Inves. Cardiol. 8:215-222; 1996, and in “Experimental study of thrombogenicity and foreign body reaction induced by heparin-coated coronary stents.” Circulation 95:1549-1553; 1997. The guiding catheter was used as a reference to obtain an oversizing from 10 to 20%.
Coronary segments were carefully dissected together with a 1 cm minimum vessel segment both proximal and distal to the stent. The segments were fixed in a 10% formalin solution. The middle part of each stent was harvested for histopathologic analysis. Tissue specimens were embedded in a cold-polymerizing resin (Technovit 7100, Heraus Kulzer GmbH, and Wehrheim, Germany). Sections, 5 microns thick, were cut with a rotary heavy duty microtome HM 360 (Microm, Walldorf, Germany) equipped with a hard metal knife and stained with hematoxylin-eosin, elastic stain and phosphotungstic acid hematoxylin stain. Light microscopic examination was performed by an experienced pathologist who was blinded to the type of stent used. Injury of the arterial wall due to stent deployment (and eventually inflammation induced by the polymer) was evaluated for each stent filament and graded as described by Schwartz et al. • Grade 0=internal elastic membrane intact, media compressed but not lacerated; • Grade 1=internal elastic membrane lacerated; • Grade 2=media visibly lacerated; external elastic membrane compressed but intact; • Grade 3=large laceration of the media extending through the external elastic membrane or stent filament residing in the adventitia.
Inflammatory reaction at each stent filament was carefully examined, searching for inflammatory cells, and scored as followed: • 1=sparsely located histolymphocytes surrounding the stent filament; • 2=more densely located histolymphocytes covering the stent filament, but no lymphogranuloma and/or giant cells formation found; • 3=diffusely located histolymphocytes, lymphogranuloma and/or giant cells, also invading the media. • Mean score=sum of score for each filament/number of filament present.

[2] = tested on: porcine coronary model; test: Directly (ethanol dip) coated stents in a porcine coronary model; assay type: in vivo; conditions: direct coating
Source text: To get rid of the polymer, which remains always a concern when coating a drug on an endoluminal prosthesis, since several polymers have shown to be non biocompatible and to induce an inflammatory response leading to SMC proliferation and restenosis, the present inventor tried to coat melatonin directly to the surface of the endoluminal prosthesis. As endoluminal prosthesis use was made of a commercially available 316L stainless steel coronary stent (V-Flex Plus, 16 mm/3.0 mm, William Cook Europe) and the stent was dipped in a 20 mg/ml ethanol solution for 30 seconds. After removal the stent was air-dried using a warm laminar flow to evaporate the ethanol. Using this method a total melatonin load on the stent of 20 μg could be achieved. […] This could be explained by the 1) the potent free radical scavenging effect of melatonin, 2) the potent anti-inflammatory effect of melatonin, 3) maybe a direct effect on SMC proliferation, 4) the non toxic effect of melatonin on other mediators of the healing response.
In a next step the total load of melatonin was increased by using more concentrated melatonin/ethanol solutions. By doing so a maximum total load of 300 μg/ stent could be achieved.

[3] = In-vitro release of drug from coated stent; assay type: physicochemical
Description: (§1) A disavantage of the direct coating system is the fast release of the drug from the stent.
(§2) In order to maintain significant melatonin concentrations for a longer period of time to obtain a durable anti-restenosis effect the present inventor has developed new methods to achieve a slower melatonin release. The drug was dissolved in a biocompatible emulsion of oil and a solvent wherein the drug is highly soluble. The stent was dipped in this emulsion several times and in between the different dipping steps air-dried using a warm laminar flow to evaporate the solvent and harden the drug/oil coating.

[4] = In-vivo melatonin coronary vascular concentration after direct-coated stent; conditions: direct coating
Source text: as §1

[5] = tested on: porcine coronary model; test: Oil/solvent emulsion coated stents (500 μg) in a porcine coronary model, up to 3 months; assay type: in vivo; conditions: oil/solvent emulsion coating, 500 μg melatonin per stent
Description: as §2
Using the same coating method, no effect of probucol was found.

[6] = tested on: in-stent neointimal hyperplasia; test: Further studies with different total loading doses per stent, in-stent neointimal hyperplasia; assay type: in vivo

## COc1ccc2[nH]cc(CCNC(C)=O)c2c1 [Melatonin, N-acetyl-5-methoxytryptamine]
[1]; 4 weeks
  effect on neointimal hyperplasia compared to bare and oil-only stents (in words): significant decrease
  lumen area compared with the other groups (in words): larger than the other groups
  effect on arterial injury and inflammatory response (in words): the injury score was dramatically decreased; also recorded: minimal inflammatory response
[1]
  AS: Area stenosis (= 100 * (1 − LA/IEL)): 16±7%
  Inflammation (peri-strut inflammation score 1-3, mean): 1.00±0.00
  Injury (arterial injury score, Schwartz grade 0-3, mean): 0.08 ± 0.09
  NIH: Neointimal hyperplasia (= IEL − LA): 0.89±0.28 mm2
  LA: Lumen area: 5.10 ± 1.40 mm2
[2]; 20 μg per stent, follow-up after 5 days
  biocompatibility / inflammation surrounding the struts on histological examination: without inducing any inflammation
[2]; high dose, maximum total load 300 μg/stent
  effect on inflammatory response and neointimal hyperplasia: efficient blocking of inflammatory response and neointimal hyperplasia
[2]; total load 20 μg per stent, after 4 weeks
  decrease in neointimal hyperplasia compared to a bare stent: 26%
[3]; direct coating, within 24 hours
  In-vitro release: 90%
[3]; oil/solvent emulsion coating, total load 500 μg per stent
  melatonin release period: weeks instead of days
[4]
  duration of sufficient melatonin coronary vascular concentration: up to 15 days
[5]
  effect on peri-strut inflammation and neointimal hyperplasia: Sustained inhibition of peri-strut inflammation and neointimal hyperplasia
[6]; dose depending response, already observed for a dose of 0.5 μg/mm^2 stent area
  effect on neointimal hyperplasia: significant inhibition

## CC(C)(Sc1cc(C(C)(C)C)c(O)c(C(C)(C)C)c1)Sc1cc(C(C)(C)C)c(O)c(C(C)(C)C)c1 [Probucol]
[1]; 4 weeks
  effect on neointimal hyperplasia compared to bare and oil-only stents (in words): no significant effect
  effect on arterial injury and inflammatory response (in words): could decrease arterial injury and inflammatory response
[1]
  AS: Area stenosis (= 100 * (1 − LA/IEL)): 24 ± 14%
  Inflammation (peri-strut inflammation score 1-3, mean): 1.03 ± 0.08
  Injury (arterial injury score, Schwartz grade 0-3, mean): 0.28 ± 0.20
  NIH: Neointimal hyperplasia (= IEL − LA): 1.43 ± 0.77 mm2
  LA: Lumen area: 4.46 ± 1.06 mm2
[1]; listed as Probutol
  Inflammation (peri-strut inflammation score 1-3, mean): 1.03±0.08
[2]; similar experiments as 20 μg melatonin stents
  effect on inflammatory response and neointimal hyperplasia: did not result in a significant effect
[5]
  effect on peri-strut inflammation and neointimal hyperplasia: no effect
[6]; Probucol total loading doses 10-2000 μg per stent
  effect on in-stent neointimal hyperplasia: no significant effect
